Test results published in ChEMBL document CHEMBL4000214, “Lycopene pretreatment improves hepatotoxicity induced by acetaminophen in C57BL/6 mice” (2017).
Calls of active or inactive are those of the source. The calls are words filed in the database; no cut-off is given here.

Columns and labels:
[1] = test system: Mus musculus; test: (§1) Hepatoprotective activity against APAP overdose-induced liver damage in C57BL/6 mouse assessed as serum IL-1beta mRNA level at 100 mg/kg, po pretreated via gavage for 14 consecutive days followed by APAP treatment 1 hr post last dose on day 14 measured 12 hrs post APAP treatment by RT-PCR method (reference value: 1.67 +/- 0.4); assay type: functional
[2] = test system: Mus musculus; test: (§2) Hepatoprotective activity against APAP overdose-induced oxidative damage in C57BL/6 mouse assessed as increase in GSH level in liver at 10 to 100 mg/kg, po pretreated via gavage for 14 consecutive days followed by APAP treatment 1 hr post last dose on day 14 measured 12 hrs post APAP treatment by DTNB reagent based assay; assay type: functional, organism-based
[3] = test system: Mus musculus; test: as §1, with “IL-6” for “IL-1beta”, “0.32” for “1.67”, “0.2)” for “0.4)”; assay type: functional
[4] = test system: Mus musculus; test: as §2, with “restoration of APAP-induced loss” for “increase”, “catalase activity” for “GSH level”, “liver by measuring decrease in hydrogen peroxide level” for “liver”, “spectrophotometric method” for “DTNB reagent based assay”; assay type: functional, organism-based
[5] = test system: Mus musculus; test: as §1, with “injury” for “damage”, “AST” for “IL-1beta mRNA”, “spectrophotometric” for “RT-PCR”, “143.8” for “1.67”, “2.5 IU)” for “0.4)”; assay type: functional
[6] = test system: Mus musculus; test: Hepatoprotective activity against APAP overdose-induced oxidative damage in C57BL/6 mouse assessed as decrease in GSSG level in liver at 10 mg/kg, po pretreated via gavage for 14 consecutive days followed by APAP treatment 1 hr post last dose on day 14 measured 12 hrs post APAP treatment; assay type: functional, organism-based
[7] = test system: Mus musculus; test: (§3) Hepatoprotective activity against APAP overdose-induced liver damage in C57BL/6 mouse assessed as decrease in liver necrotic area at 10 mg/kg, po pretreated via gavage for 14 consecutive days followed by APAP treatment 1 hr post last dose on day 14 measured 12 hrs post APAP treatment by hematoxylin and eosin staining based assay; assay type: functional, organism-based
[8] = test system: Mus musculus; test: (§4) Hepatoprotective activity against APAP overdose-induced liver injury in C57BL/6 mouse assessed as total cholesterol level in serum at 100 mg/kg, po pretreated via gavage for 14 consecutive days followed by APAP treatment 1 hr post last dose on day 14 measured 12 hrs post APAP treatment by spectrophotometric method (reference value: 42.2 +/- 3.5 mg/dl); assay type: functional
[9] = test system: Mus musculus; test: as §4, with “atherogenic fraction” for “total cholesterol level”, “10” for “100”, “28.8” for “42.2”, “2.6” for “3.5”; assay type: functional
[10] = test system: Mus musculus; test: Hepatoprotective activity against APAP overdose-induced oxidative damage in po dosed C57BL/6 mouse assessed as decrease in carbonylated protein content in liver pretreated via gavage for 14 consecutive days followed by APAP treatment 1 hr post last dose on day 14 measured 12 hrs post APAP treatment by spectrophotometric method; assay type: functional, organism-based
[11] = test system: Mus musculus; test: as §4, with “atherogenic fraction” for “total cholesterol level”, “28.8” for “42.2”, “2.6” for “3.5”; assay type: functional
[12] = test system: Mus musculus; test: as §4, with “serum AST” for “total cholesterol”, “level” for “level in serum”, “10” for “100”, “143.8” for “42.2”, “2.5 IU)” for “3.5 mg/dl)”; assay type: functional
[13] = test system: Mus musculus; test: as §4, with “serum ALT” for “total cholesterol”, “level” for “level in serum”, “10” for “100”, “166” for “42.2”, “1.7 IU)” for “3.5 mg/dl)”; assay type: functional
[14] = test system: Mus musculus; test: as §1, with “IL-10” for “IL-1beta”, “0.45” for “1.67”, “0.2)” for “0.4)”; assay type: functional
[15] = test system: Mus musculus; test: as §3, with “100” for “10”; assay type: functional, organism-based
[16] = test system: Mus musculus; test: as §1, with “IL-10” for “IL-1beta”, “10” for “100”, “0.45” for “1.67”, “0.2)” for “0.4)”; assay type: functional
[17] = test system: Mus musculus; test: Hepatoprotective activity against APAP overdose-induced oxidative damage in C57BL/6 mouse assessed as inhibition of APAP-induced decrease in total GSH level in liver at 10 to 100 mg/kg, po pretreated via gavage for 14 consecutive days followed by APAP treatment 1 hr post last dose on day 14 measured 12 hrs post APAP treatment by DTNB reagent based assay; assay type: functional, organism-based
[18] = test system: Mus musculus; test: Hepatoprotective activity against APAP overdose-induced oxidative damage in C57BL/6 mouse assessed as decrease in GSSG level in liver at 100 mg/kg, po pretreated via gavage for 14 consecutive days followed by APAP treatment 1 hr post last dose on day 14 measured 12 hrs post APAP treatment; assay type: functional, organism-based
[19] = test system: Mus musculus; test: as §4, with “serum ALT” for “total cholesterol”, “level” for “level in serum”, “166” for “42.2”, “1.7 IU)” for “3.5 mg/dl)”; assay type: functional
[20] = test system: Mus musculus; test: as §4, with “HDL” for “total cholesterol”, “10” for “100”, “10.8” for “42.2”, “0.6” for “3.5”; assay type: functional
[21] = test system: Mus musculus; test: as §1, with “10” for “100”; assay type: functional
[22] = test system: Mus musculus; test: Hepatoprotective activity against APAP overdose-induced oxidative damage in C57BL/6 mouse assessed as restoration of APAP-induced loss in SOD activity in liver by measuring SOD ability to dismutase superoxide anion at 10 to 100 mg/kg, po pretreated via gavage for 14 consecutive days followed by APAP treatment 1 hr post last dose on day 14 measured 12 hrs post APAP treatment by spectrophotometric method; assay type: functional, organism-based
[23] = test system: Mus musculus; test: as §4, with “10” for “100”; assay type: functional
[24] = test system: Mus musculus; test: as §4, with “HDL” for “total cholesterol”, “10.8” for “42.2”, “0.6” for “3.5”; assay type: functional
[25] = test system: Mus musculus; test: as §1, with “IL-6” for “IL-1beta”, “10” for “100”, “0.32” for “1.67”, “0.2)” for “0.4)”; assay type: functional
[26] = test system: Mus musculus; test: Hepatoprotective activity against APAP overdose-induced liver damage in C57BL/6 mouse assessed as decrease in APAP-induced MMP2 activity in liver at 10 to 100 mg/kg, po pretreated via gavage for 14 consecutive days followed by APAP treatment 1 hr post last dose on day 14 measured 12 hrs post APAP treatment by coomassie brilliant blue staining based gelatin zymography assay; assay type: functional, organism-based
[27] = test system: Mus musculus; test: Hepatoprotective activity against APAP overdose-induced oxidative damage in C57BL/6 mouse assessed as decrease in lipid peroxidation in liver at 10 to 100 mg/kg, po pretreated via gavage for 14 consecutive days followed by APAP treatment 1 hr post last dose on day 14 measured 12 hrs post APAP treatment by TBARS assay; assay type: functional, organism-based

CC(C)=CCC/C(C)=C/C=C/C(C)=C/C=C/C(C)=C/C=C/C=C(C)/C=C/C=C(C)/C=C/C=C(\C)CCC=C(C)C [LYCOPENE]
Activity [1]: 0.58 | Activity [2]: Active | Activity [3]: 0.4 | Activity [4]: Active | Activity [5]: 139.8 IU | Activity [6]: inactive | Activity [7]: inactive | Activity [8]: 58.2 mg/dL | Activity [9]: 30 mg/dL | Activity [10]: Dose-dependent effect | Activity [11]: 41.1 mg/dL | Activity [12]: 139.6 IU | Activity [13]: 161.7 IU | Activity [14]: 0.3 | Activity [15]: Active | Activity [16]: 0.57 | Activity [17]: Active | Activity [18]: Active | Activity [19]: 164.1 IU | Activity [20]: 9 mg/dL | Activity [21]: 0.68 | Activity [22]: inactive | Activity [23]: 41 mg/dL | Activity [24]: 17 mg/dL | Activity [25]: 0.37 | Activity [26]: Active | Activity [27]: Active
